Results taken from patent publication US12297223B2, “Compounds” (GLAXOSMITHKLINE INTELLECTUAL PROPERTY DEVELOPMENT LIMITED, priority 2019, dated 2025).

Columns and labels:
[1] = Rat pharmacokinetics after IV infusion and oral dose (AUC oral, % F, Ue % PO); type: in vivo, Male Wistar Han rats; conditions: for DNAUC oral h*uM: PO 5 mg/kg, dose normalized AUC in blood, n = 3; for bioavailability: male, Wistar Han, whole blood; for bioavailability / %F: oral bioavailability, PO 5 mg/kg vs IV infusion 1 mg/kg; for Ue% po: percentage of oral dose eliminated unchanged in urine (or estimate from iv urine fraction times oral bioavailability)
Text: General Assays for Obtaining AUC Oral h*μm, % F, and Ue % PO Values
Male Wistar Han rats were purchased from Vital River Laboratory Animal Technology Co. Ltd (Beijing, China). The animals were approx. 6-8 weeks old with body weights of 200-300 g on the dosing date. The animals were housed in a 12-hour light/12-hour dark cycle environment and had free access to food and water. All animals were fed prior to dosing. Studies were approved by the Pharmaron Institutional Animal Care and Use Committee (IACUC).
Test article was administered as an intravenous infusion for 1 hour (1 mg/kg) at 5 mL/kg/h. After 48 h, animals received a single oral dose (5 mg/kg, free form) at a dose volume of 10 mL/kg, respectively. Blood samples were collected at various time points after IV infusion and PO administrations. Urine samples were collected at various time points after IV infusion and PO administrations (for some compounds).
Test article was dissolved in DMSO with vortexing and sonification to obtain a stock solution. An aliquot of the stock solution was mixed with 10% HP-β-CD in saline with vortexing to obtain a solution with concentration at 0.2 mg/mL of test article.
Test article was added into 1% Methyl Cellulose with vortexing and sonication to obtain a homogeneous suspension with concentration at 0.5 mg/mL of test article.
For IV infusion (1 mg/kg) administration, blood samples were collected from each animal at 0, 0.25, 0.5, 0.75, 1, 1.08, 1.25, 1.5, 1.75, 2, 3, 5, 8, 12, 24 hour post-dose.
For PO (5 mg/kg) administration, blood samples were collected from each animal at 0, 0.25, 0.5, 1, 1.5, 2, 3, 4, 6, 8, 12, 24 hour post-dose.
Blood samples (50 μL) were collected from each animal via jugular vein. These blood samples were placed into tubes containing K2EDTA. Whole blood was mixed with same volume of water and inverted several times. The blood samples were stored at −75±15° C. until analysis.
For IV infusion (1 mg/kg) administration, urine samples were collected from each animal at 0-4, 4-8, 8-12, 12-24 hour post-dose.
For PO (5 mg/kg) administration, urine samples were collected (for some compounds) from each animal at 0-4, 4-8, 8-12, 12-24 hour post-dose.
55 μL of standards, 55 μL of QC samples or 55 μL of unknown samples (50 μL of blood or urine with 5 μL 50% acetonitrile) were mixed to 200 μL of acetonitrile containing IS (dexamethasone) to precipitate proteins. Then the samples were vortexed for 30 sec. After centrifugation at 4° C., 4700 rpm for 30 min, and 5 μL of the supernatant was injected into the LC-MS/MS system for quantitative analysis.
Test article blood and urine concentrations for each animal following IV infusion at 1 mg/kg and PO at 5 mg/kg were used to calculate pharmacokinetic parameters by employing a non-compartmental analysis (Phoenix™ WinNonlin® 7.0). The linear trapezoidal algorithm was used for AUC calculation. • AUC oral h*μM: Area under the curve (AUC) of drug concentration in blood vs. time (units: h*μM) following oral administration • % F: Oral bioavailability (%) derived from the ratio of dose-normalized AUC following PO and IV administration • Ue % PO: Percentage of oral dose eliminated unchanged in urine or an estimater of that parameter generated from using the percentage of the iv dose eliminated in the urine times the oral bioavailability

FimH = target: T1, FimH (Escherichia coli, UniProt Q1R2J4); assay: Hemagglutination inhibition (HAI) assay with UTI89 bacteria and guinea pig red blood cells; type: cell-based; conditions: HAI titer (EC>90): concentration reducing bacterial agglutination of guinea pig red blood cells by greater than 90%; further: ranges in brackets are in nM
T1 construct: endogenous in cells; host or cells: E. coli UTI89 (whole bacteria)
Description: “HAI titer or EC>90” is that concentration of the FimH inhibitor/antagonist which reduces the bacterial agglutination of guinea pig red blood cells by greater than 90%.
The activities of the Examples 1-34 compounds above as FimH antagonists/inhibitors were obtained by the following assay(s), and results are provided in Table 1. Results not provided mean that the activities have not yet been tested.
Hemagglutination Inhibition Assay (HAI)
The hemagglutination inhibition (HAI) assay was performed with UTI89 bacteria and guinea pig red blood cells, as previously described (S. J. Hultgren, W. R. Schwan, A. J. Schaeffer, J. L. Duncan Infect. Immun. 1986, 54, 613-620 and Jarvis, C.; Han, Z.; Kalas, V.; Klein, R.; Pinkner, J. S.; Ford, B.; Binkley, J.; Cusumano, C. K.; Cusumano, Z.; Mydock-McGrane, L.; Hultgren, S. J.; Janetka, J. W., Chem Med Chem 2016, 11, 367-373). Values not listed were not tested.

Row | Compound | DNAUC oral h*uM [1] | bioavailability [1] | Ue% po [1] | HAI (FimH) | %F [1]
1 | Cc1cc(-c2cc(C(F)(F)F)ccn2)ccc1[C@@H](C)[C@H]1O[C@H](CO)[C@@H](O)[C@H](O)[C@@H]1O (single isomer, unassigned) [Example 2] | “++” (0.5 ≤ x ≤ h · μM) | > 30% | “++” (0.5 ≤ x ≤ 5%) | “+++” (50-200) | –
2 | Cc1cc(-c2cc(F)cc(F)c2)ccc1[C@@H](C)[C@H]1O[C@H](CO)[C@@H](O)[C@H](O)[C@@H]1O (single isomer, unassigned) [Example 28] | – | – | – | “+++” (50-200) | –
3 | C#C[C@@H](c1ccc(-c2cc(F)c(Cl)c(F)c2)cc1C)[C@H]1O[C@H](CO)[C@@H](O)[C@H](O)[C@@H]1O (single isomer, unassigned) [Example 34] | – | – | – | “+++” (50-200) | –
4 | Cc1cc(-c2cnc(C(F)(F)F)cn2)ccc1[C@@H](C)[C@H]1O[C@H](CO)[C@@H](O)[C@H](O)[C@@H]1O [Example 1, (2R,3S,4R,5S,6R)-2-(Hydroxymethyl)-6-((R)-1-(2-methyl-4-(5-(trifluoromethyl)pyrazin-2-yl)phenyl)ethyl)tetrahydro-2H-pyran-3,4,5-triol] | “++” (0.5 ≤ x ≤ h · μM) | > 30% | “+++” (>5%) | “++++” (<50) | –
5 | C[C@H](c1ccc(-c2cnc(C(F)(F)F)cn2)cc1C(F)(F)F)[C@H]1O[C@H](CO)[C@@H](O)[C@H](O)[C@@H]1O [Example 3, (2R,3S,4R,5S,6R)-2-(hydroxymethyl)-6-((R)-1-(2-(trifluoromethyl)-4-(5-(trifluoromethyl)pyrazin-2-yl)phenyl)ethyl)tetrahydro-2H-pyran-3,4,5-triol] | “+++” (>1 h · μM) | > 30% | “+++” (>5%) | “++++” (<50) | –
6 | Cc1cc(-c2cncc(C(F)(F)F)c2)ccc1[C@@H](C)[C@H]1O[C@H](CO)[C@@H](O)[C@H](O)[C@@H]1O [Example 4, (2R,3S,4R,5S,6R)-2-(Hydroxymethyl)-6-((R)-1-(2-methyl-4-(5-(trifluoromethyl)pyridin-3-yl)phenyl)ethyl)tetrahydro-2H-pyran-3,4,5-triol] | “++” (0.5 ≤ x ≤ h · μM) | > 30% | “+++” (>5%) | “++++” (<50) | –
7 | Cc1cc(-c2cc(F)c(Cl)c(F)c2)ccc1[C@@H](CO)[C@H]1O[C@H](CO)[C@@H](O)[C@H](O)[C@@H]1O [Example 7, (2R,3S,4R,5S,6R)-2-((S)-1-(4′-chloro-3′,5′-difluoro-3-methyl-[1,1′-biphenyl]-4-yl)-2-hydroxyethyl)-6-(hydroxymethyl)tetrahydro-2H-pyran-3,4,5-triol] | “++” (0.5 ≤ x ≤ h · μM) | 10 to 30% | “++” (0.5 ≤ x ≤ 5%) | “++++” (<50) | –
8 | Cc1cc(-c2cc(F)cc(F)c2)ccc1[C@@H](CCO)[C@H]1O[C@H](CO)[C@@H](O)[C@H](O)[C@@H]1O [Example 11] | – | – | – | “+++” (50-200) | –
9 | Cc1cc(-c2cc(F)cc(F)c2)ccc1[C@@H](CO)[C@H]1O[C@H](CO)[C@@H](O)[C@H](O)[C@@H]1O [Example 12] | – | – | – | “+++” (50-200) | –
10 | C=C[C@H](c1ccc(-c2cc(F)cc(F)c2)cc1C)[C@H]1O[C@H](CO)[C@@H](O)[C@H](O)[C@@H]1O [Example 13] | – | – | – | “++” (201-1000) | –
11 | Cc1cc(-c2cc(F)c(Cl)c(F)c2)ccc1[C@@H](CCO)[C@H]1O[C@H](CO)[C@@H](O)[C@H](O)[C@@H]1O [Example 14] | “+” (<0.5 h · μM) | – | – | “++++” (<50) | –
12 | C=C[C@H](c1ccc(-c2cc(F)c3nccnc3c2)cc1C)[C@H]1O[C@H](CO)[C@@H](O)[C@H](O)[C@@H]1O [Example 15] | “+” (<0.5 h · μM) | – | – | “++++” (<50) | –
13 | CC[C@H](c1ccc(-c2ccn(C)c(=O)c2)cc1C)[C@H]1O[C@H](CO)[C@@H](O)[C@H](O)[C@@H]1O [Example 16] | “+” (<0.5 h · μM) | – | – | “+++” (50-200) | –
14 | CC[C@H](c1ccc(-c2cc(F)cc(C#N)c2)cc1C)[C@H]1O[C@H](CO)[C@@H](O)[C@H](O)[C@@H]1O [Example 17] | “+” (<0.5 h · μM) | – | – | – | –
15 | C=C[C@H](c1ccc(-c2cnc(C3CC3)cn2)cc1C)[C@H]1O[C@H](CO)[C@@H](O)[C@H](O)[C@@H]1O [Example 19] | “+” (<0.5 h · μM) | – | – | “++++” (<50) | –
16 | C=C[C@H](c1ccc(-c2cncc(C#N)c2)cc1C)[C@H]1O[C@H](CO)[C@@H](O)[C@H](O)[C@@H]1O [Example 20] | – | – | – | “+++” (50-200) | –
17 | CC[C@H](c1ccc(-c2cncc(C#N)c2)cc1C)[C@H]1O[C@H](CO)[C@@H](O)[C@H](O)[C@@H]1O [Example 21] | “+” (<0.5 h · μM) | – | – | “+++” (50-200) | –
18 | CC[C@H](c1ccc(-c2cnc(C3CC3)cn2)cc1C)[C@H]1O[C@H](CO)[C@@H](O)[C@H](O)[C@@H]1O [Example 22] | – | – | – | “+++” (50-200) | –
19 | Cc1cc(-c2ccc(C(F)(F)F)cn2)ccc1[C@@H](C)[C@H]1O[C@H](CO)[C@@H](O)[C@H](O)[C@@H]1O [Example 27] | – | – | – | “+++” (50-200) | –
20 | Cc1cc(-c2cncc(C(F)(F)F)n2)ccc1[C@@H](C)[C@H]1O[C@H](CO)[C@@H](O)[C@H](O)[C@@H]1O [Example 29] | “+” (<0.5 h · μM) | 10 to 30% | “++” (0.5 ≤ x ≤ 5%) | “++++” (<50) | –
21 | Cc1cc(-c2cncc(F)c2)ccc1[C@@H](C)[C@H]1O[C@H](CO)[C@@H](O)[C@H](O)[C@@H]1O [Example 30] | – | – | – | “+++” (50-200) | –
22 | Cc1cc(-c2ccc(C(F)(F)F)nn2)ccc1C(C)[C@H]1O[C@H](CO)[C@@H](O)[C@H](O)[C@@H]1O (stereo partly drawn) [Example 31] | – | – | – | “++++” (<50) | –
23 | C[C@H](c1ccc(-c2cc(C(F)(F)F)ccn2)cc1C(F)(F)F)[C@H]1O[C@H](CO)[C@@H](O)[C@H](O)[C@@H]1O [Example 32] | – | – | – | “+++” (50-200) | –
24 | C[C@H](c1ccc(-c2ccc(C(F)(F)F)cn2)cc1C(F)(F)F)[C@H]1O[C@H](CO)[C@@H](O)[C@H](O)[C@@H]1O [Example 33] | – | – | – | “+++” (50-200) | –
25 | (2R,3S,4R,5S,6R)-2-(Hydroxymethyl)-6-((R)-1-(2-methyl-4-(5-(trifluoromethyl)pyrazin-2-yl)phenyl)allyl)tetrahydro-2H-pyran-3,4,5-triol [Example 6] | “+” (<0.5 h · μM) | – | – | “+++” (50-200) | “++” (10 ≤ x ≤ 30%)
26 | (2R,3S,4R,5S,6R)-2-(Hydroxymethyl)-6-((R)-1-(2-methyl-4-(5-(trifluoromethyl)pyrazin-2-yl)phenyl)propyl)tetrahydro-2H-pyran-3,4,5-triol [Example 5] | “+” (<0.5 h · μM) | – | “++” (0.5 ≤ x ≤ 5%) | “+++” (50-200) | “++” (10 ≤ x ≤ 30%)
